The test system of test [1] is hepatitis C replicon. The test is described as follows: hepatitis C replicon EC50. Format: cell-based. As to conditions: Hepatitis C virus; Table 2; hepatitis C replicon; read-out: EC50. The text has this:
NS3-NS4 inhibition activity can be determined using known assay methods.

For test [2], the target named is NS3/NS4 complexes (Hepatitis C virus genotype 1a, UniProt P27958). In words: NS3/NS4 inhibition activity (IC50). The following applies: Table 2, read-out: IC50. Format: biochemical. The text has this:
NS3-NS4 inhibition activity can be determined using known assay methods. For example, NS3/NS4 complexes may be formed and inhibitory concentrations of test compounds determined as described in U.S. Patent Application Publication Number 2007/0054842 paragraph numbers 1497-1509, which is incorporated herein by reference in its entirety. Similarly, hepatitis C replicon EC50 may be determined using known assay methods such as described in U.S. Patent Application Publication Number 2007/0054842 paragraph numbers 1510-1515. Assays may be conducted at ambient temperature (23° C.) in assay buffer containing 50 mM Tris-HCl, pH 7.5, 15% glycerol, 0.6 mM Lauryldimethylamine Oxide (LDAO), 25 μM NS4A peptide, and 10 mM Dithiothreitol (DTT).

NS3/NS4 complexes, sequence (P27958 1027-1657): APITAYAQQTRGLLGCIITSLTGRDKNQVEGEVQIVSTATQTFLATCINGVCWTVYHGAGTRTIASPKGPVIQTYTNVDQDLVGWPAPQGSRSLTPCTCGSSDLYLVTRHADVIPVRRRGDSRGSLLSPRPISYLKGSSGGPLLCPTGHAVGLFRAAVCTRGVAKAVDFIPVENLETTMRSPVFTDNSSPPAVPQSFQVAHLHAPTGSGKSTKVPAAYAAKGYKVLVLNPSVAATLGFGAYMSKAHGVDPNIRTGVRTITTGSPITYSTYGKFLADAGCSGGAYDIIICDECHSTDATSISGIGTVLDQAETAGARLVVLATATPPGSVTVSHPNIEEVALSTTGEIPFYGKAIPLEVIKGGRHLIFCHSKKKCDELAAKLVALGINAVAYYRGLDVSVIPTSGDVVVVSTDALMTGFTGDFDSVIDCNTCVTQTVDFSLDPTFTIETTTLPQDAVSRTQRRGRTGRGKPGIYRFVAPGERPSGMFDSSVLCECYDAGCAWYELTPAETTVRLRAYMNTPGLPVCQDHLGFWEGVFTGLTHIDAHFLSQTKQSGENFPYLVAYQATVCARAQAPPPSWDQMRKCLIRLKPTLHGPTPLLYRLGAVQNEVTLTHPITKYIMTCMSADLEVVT
NS3/NS4 complexes, sequence (P27958 1658-1711): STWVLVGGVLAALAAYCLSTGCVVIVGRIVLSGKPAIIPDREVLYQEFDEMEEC

Take `CC1(S(=O)(=O)NC(=O)[C@@]23C[C@H]2/C=C\CCCCC[C@H](Nc2cc(F)cc(F)c2)C(=O)N2C[C@H](Oc4nc5ccccc5s4)C[C@H]2C(=O)N3)CC1` [Compound 328]: the EC50 in test [1] fell in the range of 10 to 75 nM. For the same molecule, the IC50 in test [2] was below 10 nM.
For `CC1(S(=O)(=O)NC(=O)[C@@]23C[C@H]2/C=C\CCCCC[C@H](Nc2ccc(C(F)(F)F)cc2)C(=O)N2C[C@H](Oc4nc5ccccc5s4)C[C@H]2C(=O)N3)CC1` [Compound 330], in that order: 75 to 500 nM and below 10 nM.
As for `O=C1N[C@]2(C(=O)O)C[C@H]2/C=C\CCCCC[C@H](Nc2ccc(Cl)cc2)C(=O)N2C[C@H](Oc3nc4ccccc4s3)C[C@@H]12` [Compound 331], the EC50 in test [1] is above 500 nM. Besides, the IC50 in test [2] is 75 to 500 nM.
With `CC1(S(=O)(=O)NC(=O)[C@@]23C[C@H]2/C=C\CCCCC[C@H](Nc2ccc(Cl)cc2)C(=O)N2C[C@H](Oc4nc5ccccc5s4)C[C@H]2C(=O)N3)CC1` [Compound 332], in test [1], the EC50 lay within 75 to 500 nM. In addition, the IC50 in test [2] was below 10 nM.
For `O=C1N[C@]2(C(=O)O)C[C@H]2/C=C\CCCCC[C@H](Nc2ccc(Cl)c(Cl)c2)C(=O)N2C[C@H](Oc3nc4ccccc4s3)C[C@@H]12` [Compound 333], in that order: above 500 nM and 75 to 500 nM.
For `CC1(S(=O)(=O)NC(=O)[C@@]23C[C@H]2/C=C\CCCCC[C@H](Nc2ccc(Cl)c(Cl)c2)C(=O)N2C[C@H](Oc4nc5ccccc5s4)C[C@H]2C(=O)N3)CC1` [Compound 334] the same measures were 75 to 500 nM and below 10 nM.
For `O=C1N[C@]2(C(=O)O)C[C@H]2/C=C\CCCCC[C@H](Nc2cccc(Cl)c2)C(=O)N2C[C@H](Oc3nc4ccccc4s3)C[C@@H]12` [Compound 335] the same measures were above 500 nM and 10 to 75 nM.
Take `CC1(S(=O)(=O)NC(=O)[C@@]23C[C@H]2/C=C\CCCCC[C@H](Nc2cc(C(F)(F)F)cc(C(F)(F)F)c2)C(=O)N2C[C@H](Oc4nc5ccccc5s4)C[C@H]2C(=O)N3)CC1` [Compound 336]: the EC50 in test [1] lay in the range of 75 to 500 nM. Further, the IC50 in test [2] was below 10 nM.
In the case of `CC1(S(=O)(=O)NC(=O)[C@@]23C[C@H]2/C=C\CCCCC[C@H](Nc2cccc(Cl)c2)C(=O)N2C[C@H](Oc4nc5ccccc5s4)C[C@H]2C(=O)N3)CC1` [Compound 337], the EC50 in test [1] was 75 to 500 nM. Moreover, the IC50 in test [2] is below 10 nM.
For `O=C1N[C@]2(C(=O)O)C[C@H]2/C=C\CCCCC[C@H](Nc2cc(C(F)(F)F)cc(C(F)(F)F)c2)C(=O)N2C[C@H](Oc3nc4ccccc4s3)C[C@@H]12` [Compound 338] the same measures were above 500 nM and 75 to 500 nM.
For `CC1(S(=O)(=O)NC(=O)[C@@]23C[C@H]2/C=C\CCCCC[C@H](Nc2ccccc2F)C(=O)N2C[C@H](Oc4nc5ccccc5s4)C[C@H]2C(=O)N3)CC1` [Compound 339], in that order: 75 to 500 nM and below 10 nM.
Consider `CC1(S(=O)(=O)NC(=O)[C@@]23C[C@H]2/C=C\CCCCC[C@H](Nc2cc(Cl)cc(Cl)c2)C(=O)N2C[C@H](Oc4nc5ccccc5s4)C[C@H]2C(=O)N3)CC1` [Compound 340], for which the EC50 in test [1] was 10 to 75 nM. Further, the IC50 in test [2] is below 10 nM.
For `CC1(S(=O)(=O)NC(=O)[C@@]23C[C@H]2/C=C\CCCCC[C@H](Nc2ccc(F)c(F)c2)C(=O)N2C[C@H](Oc4nc5ccccc5s4)C[C@H]2C(=O)N3)CC1` [Compound 341] the same measures were 10 to 75 nM and below 10 nM.
For `CC1(S(=O)(=O)NC(=O)[C@@]23C[C@H]2/C=C\CCCCC[C@H](Nc2ccc4ccccc4c2)C(=O)N2C[C@H](Oc4nc5ccccc5s4)C[C@H]2C(=O)N3)CC1` [Compound 342] the same measures were 75 to 500 nM and below 10 nM.
With `CC1(S(=O)(=O)NC(=O)[C@@]23C[C@H]2/C=C\CCCCC[C@H](Nc2cc(F)cc(C(F)(F)F)c2)C(=O)N2C[C@H](Oc4nc5ccccc5s4)C[C@H]2C(=O)N3)CC1` [Compound 345], in test [1], the EC50 was in the range of 10 to 75 nM. In addition, the IC50 in test [2] is below 10 nM.
For `CC1(S(=O)(=O)NC(=O)[C@@]23C[C@H]2/C=C\CCCCC[C@H](Nc2cc(F)cc(C(F)(F)F)c2)C(=O)N2C[C@H](Oc4nccc5ccccc45)C[C@H]2C(=O)N3)CC1` [Compound 346], in that order: below 10 nM and below 10 nM.
Turning to `CC1(S(=O)(=O)NC(=O)[C@@]23C[C@H]2/C=C\CCCCC[C@H](Nc2ccc(F)c(C(F)(F)F)c2)C(=O)N2C[C@H](Oc4nccc5ccccc45)C[C@H]2C(=O)N3)CC1` [Compound 347], the EC50 in test [1] is below 10 nM. In addition, the IC50 in test [2] is below 10 nM.
With `O=C1N[C@]2(C(=O)NS(=O)(=O)C3CC3)C[C@H]2/C=C\CCCCC[C@H](Nc2ccc(F)cc2)C(=O)N2C[C@H](Oc3nc4ccccc4s3)C[C@@H]12` [Compound 348], the EC50 in test [1] was 75 to 500 nM. Also, in test [2], the IC50 is below 10 nM.
For `CC1(S(=O)(=O)NC(=O)[C@@]23C[C@H]2/C=C\CCCCC[C@H](Nc2ccc(F)cc2)C(=O)N2C[C@H](Oc4nc5ccccc5s4)C[C@H]2C(=O)N3)CC1` [Compound 349] the same measures were 10 to 75 nM and below 10 nM.
For `Cc1ccc2nc(O[C@@H]3C[C@H]4C(=O)N[C@]5(C(=O)NS(=O)(=O)C6(C)CC6)C[C@H]5/C=C\CCCCC[C@H](Nc5cc(F)cc(C(F)(F)F)c5)C(=O)N4C3)sc2c1` [Compound 350] the same measures were 75 to 500 nM and below 10 nM.
For `CC1(S(=O)(=O)NC(=O)[C@@]23C[C@H]2/C=C\CCCCC[C@H](Nc2cc(F)cc(C(F)(F)F)c2)C(=O)N2C[C@H](Oc4nc5ccc(Cl)cc5s4)C[C@H]2C(=O)N3)CC1` [Compound 351] the same measures were 75 to 500 nM and below 10 nM.
On to `CC1(S(=O)(=O)NC(=O)[C@@]23C[C@H]2/C=C\CCCCC[C@H](Nc2cc(F)cc(C(F)(F)F)c2)C(=O)N2C[C@H](Oc4nc5ccc(Br)cc5s4)C[C@H]2C(=O)N3)CC1` [Compound 352], for which the EC50 in test [1] fell in the range of 10 to 75 nM. Also, in test [2], the IC50 is below 10 nM.
With `CC1(S(=O)(=O)NC(=O)[C@@]23C[C@H]2/C=C\CCCCC[C@H](Nc2cc(F)cc(C(F)(F)F)c2)C(=O)N2C[C@H](Oc4nc5ccccc5o4)C[C@H]2C(=O)N3)CC1` [Compound 353], in test [1], the EC50 is 75 to 500 nM. Besides, the IC50 in test [2] was below 10 nM.
Regarding `COc1ccc2c(O[C@@H]3C[C@H]4C(=O)N[C@]5(C(=O)O)C[C@H]5/C=C\CCCCC[C@H](Nc5cc(F)cc(C(F)(F)F)c5)C(=O)N4C3)cc(-c3ccccc3)nc2c1` [Compound 354], the EC50 in test [1] was in the range of 75 to 500 nM. Moreover, in test [2], the IC50 was below 10 nM.
In the case of `COc1ccc2c(O[C@@H]3C[C@H]4C(=O)N[C@]5(C(=O)NS(=O)(=O)C6(C)CC6)C[C@H]5/C=C\CCCCC[C@H](Nc5cc(F)cc(C(F)(F)F)c5)C(=O)N4C3)cc(-c3ccccc3)nc2c1` [Compound 355], the EC50 in test [1] is below 10 nM. The IC50 in test [2] is below 10 nM.
Consider `COc1ccc2c(O[C@@H]3C[C@H]4C(=O)N[C@]5(C(=O)NS(=O)(=O)C6CC6)C[C@H]5/C=C\CCCCC[C@H](Nc5ccc(F)c(C(F)(F)F)c5)C(=O)N4C3)cc(-c3ccccc3)nc2c1` [Compound 356], for which the EC50 in test [1] is below 10 nM. Also, the IC50 in test [2] is below 10 nM.
As for `COc1ccc2c(O[C@@H]3C[C@H]4C(=O)N[C@]5(C(=O)NS(=O)(=O)C6(C)CC6)C[C@H]5/C=C\CCCCC[C@H](Nc5cc(F)cc(C(F)(F)F)c5)C(=O)N4C3)cc(-c3nc(C(C)C)cs3)nc2c1C` [Compound 358], the EC50 in test [1] lay in the range of 10 to 75 nM. The IC50 in test [2] is below 10 nM.
For `COc1ccc2c(O[C@@H]3C[C@H]4C(=O)N[C@]5(C(=O)NS(=O)(=O)C6(C)CC6)C[C@H]5/C=C\CCCCC[C@H](Nc5ccccc5)C(=O)N4C3)cc(-c3nc(C(C)C)cs3)nc2c1C` [Compound 359] the same measures were below 10 nM and below 10 nM.
For `COc1ccc2c(O[C@@H]3C[C@H]4C(=O)N[C@]5(C(=O)NS(=O)(=O)C6(C)CC6)C[C@H]5/C=C\CCCCC[C@H](Nc5cccc(C(F)(F)F)c5)C(=O)N4C3)cc(-c3nc(C(C)C)cs3)nc2c1C` [Compound 360] the same measures were below 10 nM and below 10 nM.
Take `COc1ccc2c(O[C@@H]3C[C@H]4C(=O)N[C@]5(C(=O)NS(=O)(=O)C6(C)CC6)C[C@H]5/C=C\CCCCC[C@H](Nc5cccc(F)c5)C(=O)N4C3)cc(-c3nc(C(C)C)cs3)nc2c1C` [Compound 361]: the EC50 in test [1] was below 10 nM. The IC50 in test [2] was below 10 nM.
`COc1ccc2c(O[C@@H]3C[C@H]4C(=O)N[C@]5(C(=O)NS(=O)(=O)C6(C)CC6)C[C@H]5/C=C\CCCCC[C@H](Nc5ccc(F)cc5)C(=O)N4C3)cc(-c3nc(C(C)C)cs3)nc2c1C` [Compound 362]: in test [1], the EC50 is below 10 nM. Further, the IC50 in test [2] is below 10 nM.
Consider `COc1ccc2c(O[C@@H]3C[C@H]4C(=O)N[C@]5(C(=O)NS(=O)(=O)C6(C)CC6)C[C@H]5/C=C\CCCCC[C@H](Nc5cc(F)cc(F)c5)C(=O)N4C3)cc(-c3nc(C(C)C)cs3)nc2c1C` [Compound 363], for which the concentration for a half-maximal effect (EC50) in test [1] lay within 10 to 75 nM. The IC50 in test [2] is below 10 nM.
As to `CC(C)n1c(O[C@@H]2C[C@H]3C(=O)N[C@]4(C(=O)NS(=O)(=O)C5(C)CC5)C[C@H]4/C=C\CCCCC[C@H](Nc4ccccc4)C(=O)N3C2)nc2ccccc21` [Compound 365], the EC50 in test [1] is below 10 nM. Besides, the IC50 in test [2] was below 10 nM.
Turning to `COc1ccc2c(O[C@@H]3C[C@H]4C(=O)N[C@]5(C(=O)NS(=O)(=O)C6CC6)C[C@H]5/C=C\CCCCC[C@H](Nc5cccc(C(F)(F)F)c5)C(=O)N4C3)cc(-c3nc(C(C)C)cs3)nc2c1C` [Compound 369], in test [1], the EC50 was below 10 nM. Moreover, the half-maximal inhibitory concentration (IC50) in test [2] is below 10 nM.

The values are drawn from patent US8048862B2, “Macrocyclic inhibitors of hepatitis C virus replication” (priority 2008, dated 2011).
